Each structure is given as a SMILES string.

The assay addresses Gonadotropin-releasing hormone receptor (Rattus norvegicus) (UniProt P30969). As to the kind of experiment: In vitro binding affinity was determined against rat Luteinizing hormone-releasing hormone (LHRH) receptor cloned in CHO cells.

Gonadotropin-releasing hormone receptor (Rattus norvegicus), sequence (P30969 whole entry, looked up): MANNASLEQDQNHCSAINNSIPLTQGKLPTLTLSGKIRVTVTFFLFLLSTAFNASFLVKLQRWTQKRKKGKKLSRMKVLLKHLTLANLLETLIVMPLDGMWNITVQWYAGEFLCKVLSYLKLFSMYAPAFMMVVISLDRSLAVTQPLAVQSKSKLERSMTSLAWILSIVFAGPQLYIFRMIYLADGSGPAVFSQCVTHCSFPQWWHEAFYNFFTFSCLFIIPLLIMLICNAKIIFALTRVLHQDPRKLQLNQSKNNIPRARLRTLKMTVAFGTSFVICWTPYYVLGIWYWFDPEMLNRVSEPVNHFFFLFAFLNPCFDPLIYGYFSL

In general, Ki refers to the dissociation constant of the complex between target and ligand, obtained from inhibition or displacement. High values mean weaker binding, low ones tighter binding. In turn, `CC[C@H]1OC(=O)[C@H](C)[C@@H](OC(=O)N2CCOC2)[C@H](C)[C@@H](OC2O[C@H](C)C[C@H](N(C)C(C)C)[C@H]2O)[C@@](C)(OC)C[C@@H](C)C(=O)[C@H](C)[C@H]2N(CCc3ccc(Cl)cc3)C(=O)O[C@]12C` (stereo partly specified) had an inhibition constant (Ki) of 51 nM.

The values are drawn from BindingDB's records for doi:10.1021/jm030418i (Abbott Laboratories, 2004).
